Data from patent publication US6849616B1, “Methods to potentiate intravenous estramustine phosphate” (Pharmacia Italia S.p.A., priority 1998, dated 2005).

Assays:
[1] = system: hormone refractory prostate cancer; details: oral, combined with vinblastine, cited from earlier work
[2] = system: hormone refractory prostate cancer; details: with Taxol, cited from earlier work
[3] = system: hormone refractory prostate cancer; details: oral, combined with Etoposide, cited from earlier work
[4] = cited from earlier work
[5] = system: advanced metastatic prostate cancer; test: Clinical cases: weekly high-dose intravenous estramustine phosphate
prostate cancer = details: given orally with escalating doses of docetaxel, cited from earlier work
tubulin = details: in vitro (Dahllof 1993); cited from earlier work
tumor cell division = details: tissue culture (Hartley-Asp, 1984); cited from earlier work
[6] = Gunnarsson, 1981, 1984; cited from earlier work
[7] = system: estramustine binding protein (EMBP); details: cited from earlier work
[8] = patients, single intravenous dose of 300 mg; previous data; cited from earlier work
[9] = Pharmacokinetics after a single high intravenous dose of estramustine phosphate in patients; details: after a single high intravenous dose of estramustine phosphate at 1000 mg/m^2; FIG. 2
[10] = 245 patients, 300-600 mg/day i.v. for 21 days then once or twice weekly for 2 months (Andersson et al)
[11] = 1000 mg/m^2 i.v. central line, 30 minute infusion, three patients
[12] = 1500 mg/m^2 i.v. central line, 30 minutes or 1 hour infusion, three patients
[13] = 2000 mg/m^2 i.v. central line, 60 minute infusion, with anti-thrombotic agent, three patients
[14] = 2500 mg/m^2 i.v. central line, 90 minute infusion, two patients

C[C@]12CC[C@@H]3c4ccc(OC(=O)N(CCCl)CCCl)cc4CC[C@H]3[C@@H]1CC[C@@H]2OP(=O)(O)O [estramustine phosphate]
incidence of significant cardiovascular toxicity ([1]; 4/37): 10.5%
decrease in prostate specific antigen ([1]; among 88 patients): 50-75%
most frequent toxicity [1]: mild to moderate nausea
transient hepatic enzyme elevation of grade 1-3 ([2]; 6 patients): 35.2%
edema ([2]; 8 patients): 47%
patients obtaining a PR ([2]; of six patients with measurable disease, PR of 2+, 6, and 8 months): 3
Grade 3-4 granulocytopenia and mucositis ([2]; seventeen patients): 2 patients
median duration of response ([2]; seventeen patients): 7 months
nausea grade 1-2 ([2]; seventeen patients): 70.5%
patients with PSA decreased by ≧50% ([2]; seventeen patients): 58.8%
complete responses (CR) ([3]; 20 patients with soft tissue disease (3 patients)): 15%
partial responses (PR) ([3]; 20 patients with soft tissue disease (6 patients)): 30%
patients with bone metastases improved ([3]; 32 patients with bone metastases (8 patients)): 25%
patients with bone metastases stable ([3]; 32 patients with bone metastases (12 patients)): 38%
men with a 75% decrease in prostate specific antigen ([3]; overall, 13 men): 25%
men with a 50% decrease in prostate specific antigen ([3]; overall, 28 men): 54%
toxicity at 450 mg/day intravenous ([4]; 450 mg/day i.v. (Nagel and Kölln 1977)): severe gastrointestinal problems
patients with severe liver problems ([4]; 900 mg/day i.v. for 7-10 days followed by oral therapy, 11 of 18 patients (Maier 1990)): 61%
patients exhibiting gastrointestinal problems [4, 10]: 17%
patients exhibiting liver disturbances [4, 10]: 9%
patients exhibiting thrombophlebitis [4, 10]: 20%
PSA response [5, 11]: several patients demonstrating PSA response
tolerability of infusions [5, 11]: well tolerated
tolerability of infusions [5, 12]: well tolerated
tumor response [5, 12]: one patient demonstrating a response in bulky tumor adenopathy
PSA response [5, 13]: evidence of PSA response
tolerability of infusions [5, 13]: well tolerated without serious toxicity
prostate specific antigen (PSA) response [5, 14]: both patients demonstrated a response (reduction)
tolerability of infusions [5, 14]: well tolerated without serious toxicity
overall prostate specific antigen response rate (prostate cancer): 62%
partial response in lymph nodes (prostate cancer; patients with bidimensionally measurable disease (3 patients)): 43%

C[C@]12CC[C@@H]3c4ccc(OC(=O)N(CCCl)CCCl)cc4CC[C@H]3[C@@H]1CC[C@@H]2O [estramustine]
effect on assembly of microtubules composed of only tubulin (tubulin): inhibited the assembly of microtubules
anti-mitotic effect (tumor cell division): dose-dependent blocking of tumor cell division in the metaphase
yield of estradiol and estrone, respectively, by cleavage of the carbamic ester [6]: approximately 15%
binding affinity to EMBP-like protein [7]: very high affinity

C[C@]12CC[C@@H]3c4ccc(OC(=O)N(CCCl)CCCl)cc4CC[C@H]3[C@@H]1CCC2=O [estromustine]
elimination half lives of estromustine [8]: 10 to 20 h
yield of estradiol and estrone, respectively, by cleavage of the carbamic ester [6]: approximately 15%
half life of estromustine [9]: approximately 100 hours
binding affinity to EMBP-like protein [7]: very high affinity
